From patent US20100216779A1 (GLAXOSMITHKLINE LLC, priority 2007, published 2010)
pIC50: −log10 of the molar value.

What was measured:
Assay type in all cases: cell-based
[1] = molecular target: T1, IR (NIH-3T3 cells over expressing human IGF-1R or IR) (Homo sapiens, UniProt P06213); assay: IR cellular autophosphorylation (DELFIA); settings: NIH-3T3 cells over expressing IR, insulin stimulated
T1 construct: expressed in transfected cells; host or cells: NIH-3T3 (mouse fibroblasts)
Experimental: D. IGF-1R and IR Cellular Autophosphorylation (DELFIA)
NIH-3T3 cells over expressing human IGF-1R or IR were plated in 96-well plates (10,000 cells/well) in culture media containing 10% fetal bovine serum and incubated at 37° C. in a 5% CO2 incubator. Twenty four hours post-plating, cells were treated with different concentrations of test compounds ranging from 30 uM to 1.5 nM. Two hours after compound addition, cells were stimulated with either human IGF-1 (30 ng/mL) or insulin (3 ug/mL) for 15 minutes. Cell lysates are analyzed for phosphorylated receptors using dissociation enhanced lanthanide fluor-immuno assay (DELFIA) with anti-IGF-1R (MAB391, R&D Systems, Minneapolis, Minn.) or anti-IR[…](sc-711, Santa Cruz Biotechnology, Santa Cruz, Calif.) capture antibody and europium-labeled anti-pTyr antibody (Eu-N1 PT66, Perkin Elmer, Waltham, Mass.) for detection. The fluorescence signal for cells treated with compounds was expressed as percent relative to 100% stimulation (IGF-1 or insulin stimulated signal). […]

[2] = system: COLO205 (colon); assay: Inhibition of cell proliferation, CellTiter-Glo, COLO205; settings: Homo sapiens, COLO 205, 72 h
In short: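 Exponentially growing COLO205 cells in medium with 10% FBS were plated below 2000 cells/well at 37 °C, 5% CO2. Untreated wells served as controls.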

[3] = molecular target: T2, human IGF-1R (NIH-3T3 cells over expressing human IGF-1R) (Homo sapiens, UniProt P08069); assay: IGF-1R cellular autophosphorylation (DELFIA); settings: IGF-1 stimulated
T2 construct: expressed in transfected cells; host or cells: NIH-3T3 (mouse fibroblasts)
In short: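 Read-out: DELFIA on lysates, receptor-specific capture antibody plus europium-labelled anti-phosphotyrosine, reported as % of IGF-1- or insulin-stimulated signal. Transfected NIH-3T3 cells got compound (30 uM–1.5 nM, 2 h) before a 15 min ligand pulse: IGF-1 30 ng/mL for IGF-1R, insulin 3 ug/mL for IR.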

T2 sequence (P08069 31-1367): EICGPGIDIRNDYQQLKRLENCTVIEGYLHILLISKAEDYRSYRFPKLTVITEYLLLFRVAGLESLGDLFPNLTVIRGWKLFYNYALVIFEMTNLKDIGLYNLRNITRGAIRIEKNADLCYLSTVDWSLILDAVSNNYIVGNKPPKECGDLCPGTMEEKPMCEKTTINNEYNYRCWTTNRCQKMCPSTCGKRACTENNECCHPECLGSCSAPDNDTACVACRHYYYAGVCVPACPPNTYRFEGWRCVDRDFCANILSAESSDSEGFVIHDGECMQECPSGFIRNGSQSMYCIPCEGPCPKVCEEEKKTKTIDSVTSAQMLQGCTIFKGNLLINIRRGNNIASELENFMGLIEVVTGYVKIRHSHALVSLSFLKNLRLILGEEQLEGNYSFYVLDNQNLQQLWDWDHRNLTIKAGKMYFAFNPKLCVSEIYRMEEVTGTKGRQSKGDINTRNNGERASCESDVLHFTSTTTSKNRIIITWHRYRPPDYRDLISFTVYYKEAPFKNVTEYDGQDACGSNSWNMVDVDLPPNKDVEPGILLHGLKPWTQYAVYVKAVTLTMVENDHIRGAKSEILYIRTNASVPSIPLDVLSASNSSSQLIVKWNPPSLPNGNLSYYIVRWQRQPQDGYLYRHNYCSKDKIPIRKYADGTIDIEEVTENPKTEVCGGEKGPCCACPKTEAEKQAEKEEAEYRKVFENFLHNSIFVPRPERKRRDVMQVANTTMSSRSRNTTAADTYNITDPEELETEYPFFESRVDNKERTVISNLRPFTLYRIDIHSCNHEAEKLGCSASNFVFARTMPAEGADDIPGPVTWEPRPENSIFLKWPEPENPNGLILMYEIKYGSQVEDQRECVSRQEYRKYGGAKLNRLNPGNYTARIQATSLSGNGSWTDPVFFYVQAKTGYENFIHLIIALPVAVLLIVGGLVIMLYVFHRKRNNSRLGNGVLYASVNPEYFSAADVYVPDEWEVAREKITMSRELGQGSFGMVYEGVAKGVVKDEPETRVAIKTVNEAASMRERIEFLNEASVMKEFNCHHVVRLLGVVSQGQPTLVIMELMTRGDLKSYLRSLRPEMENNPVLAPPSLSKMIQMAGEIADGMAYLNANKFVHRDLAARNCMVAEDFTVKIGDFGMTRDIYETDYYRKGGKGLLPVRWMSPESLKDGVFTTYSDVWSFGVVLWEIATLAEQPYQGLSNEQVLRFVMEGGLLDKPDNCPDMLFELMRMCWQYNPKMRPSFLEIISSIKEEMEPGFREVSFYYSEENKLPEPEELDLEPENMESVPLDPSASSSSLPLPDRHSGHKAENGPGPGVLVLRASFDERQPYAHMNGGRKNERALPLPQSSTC
T1 sequence (P06213 28-1382): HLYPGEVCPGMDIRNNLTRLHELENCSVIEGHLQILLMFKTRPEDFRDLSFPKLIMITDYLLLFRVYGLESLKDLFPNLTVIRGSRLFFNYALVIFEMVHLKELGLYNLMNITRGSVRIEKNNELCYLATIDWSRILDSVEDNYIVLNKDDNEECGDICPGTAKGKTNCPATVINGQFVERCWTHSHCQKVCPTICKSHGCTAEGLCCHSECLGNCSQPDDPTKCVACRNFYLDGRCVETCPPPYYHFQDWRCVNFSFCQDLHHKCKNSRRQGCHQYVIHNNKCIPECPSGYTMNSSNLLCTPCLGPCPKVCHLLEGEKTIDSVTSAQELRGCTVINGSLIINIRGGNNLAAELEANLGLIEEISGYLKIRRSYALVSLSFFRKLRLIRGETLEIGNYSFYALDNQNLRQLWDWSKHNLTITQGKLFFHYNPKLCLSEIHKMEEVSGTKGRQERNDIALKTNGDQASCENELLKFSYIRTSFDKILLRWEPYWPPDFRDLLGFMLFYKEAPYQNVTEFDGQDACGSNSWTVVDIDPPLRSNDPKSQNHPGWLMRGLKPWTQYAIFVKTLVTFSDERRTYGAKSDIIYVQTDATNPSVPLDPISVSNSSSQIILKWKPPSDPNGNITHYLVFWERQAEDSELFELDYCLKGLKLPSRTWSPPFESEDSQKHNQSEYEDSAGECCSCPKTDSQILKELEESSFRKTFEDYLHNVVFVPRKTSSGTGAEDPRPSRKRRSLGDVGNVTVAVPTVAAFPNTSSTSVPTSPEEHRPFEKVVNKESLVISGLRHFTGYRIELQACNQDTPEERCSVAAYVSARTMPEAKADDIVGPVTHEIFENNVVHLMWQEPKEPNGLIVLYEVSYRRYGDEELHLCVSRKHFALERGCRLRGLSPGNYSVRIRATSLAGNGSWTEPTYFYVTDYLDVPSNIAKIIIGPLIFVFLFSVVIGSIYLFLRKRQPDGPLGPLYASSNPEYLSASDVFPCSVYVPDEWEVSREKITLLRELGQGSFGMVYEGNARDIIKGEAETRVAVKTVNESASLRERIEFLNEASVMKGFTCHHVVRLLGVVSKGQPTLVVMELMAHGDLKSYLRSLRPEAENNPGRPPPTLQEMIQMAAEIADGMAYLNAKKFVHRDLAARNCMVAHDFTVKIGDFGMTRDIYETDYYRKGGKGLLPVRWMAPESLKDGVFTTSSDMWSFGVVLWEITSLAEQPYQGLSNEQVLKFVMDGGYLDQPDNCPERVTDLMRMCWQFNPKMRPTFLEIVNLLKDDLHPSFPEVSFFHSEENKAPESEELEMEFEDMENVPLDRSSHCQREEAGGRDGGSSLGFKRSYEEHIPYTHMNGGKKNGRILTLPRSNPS

SMILES | pIC50 [1] | pIC50 [2] | pIC50 [3]
COc1ccn2c(-c3ccnc(Nc4ccc(N5CCC(N6CCN(CCF)CC6)CC5)cc4OC)n3)c(-c3cccc(C(=O)Nc4c(F)cccc4F)c3)nc2c1 [Example 62, N-(2,6-difluorophenyl)-3-[3-(2-{[4-{4-[4-(2-fluoroethyl)-1-piperazinyl]-1-piperidinyl}-2-(methyloxy)phenyl]amino}-4-pyrimidinyl)-7-(methyloxy)imidazo[1,2-a]pyridin-2-yl]benzamide] | > 7.00 | 6.00 to 6.60 | > 7.00
COc1cc(N2CCN(C3CCN(CCF)CC3)CC2)ccc1Nc1nccc(-c2c(-c3cccc(C(=O)Nc4c(F)cccc4F)c3)nc3ccccn23)n1 [Example 90, N-(2,6-difluorophenyl)-3-[3-(2-{[4-{4-[1-(2-fluoroethyl)-4-piperidinyl]-1-piperazinyl}-2-(methyloxy)phenyl]amino}-4-pyrimidinyl)imidazo[1,2-a]pyridin-2-yl]benzamide] | > 7.00 | 6.00 to 6.60 | > 7.00
CCOc1cc(N2CCC(N3CCCCC3)CC2)ccc1Nc1nccc(-c2c(-c3cccc(C(=O)Nc4c(F)cccc4F)c3)nc3ccccn23)n1 [Example 34, 3-[3-(2-{[4-(1,4′-bipiperidin-1′-yl)-2-(ethyloxy)phenyl]amino}-4-pyrimidinyl)imidazo[1,2-a]pyridin-2-yl]-N-(2,6-difluorophenyl)benzamide] | 6.30 to 7.00 | 6.00 to 6.60 | > 7.00
COc1cc(N2CCC(N3C[C@@H]4C[C@H]3CN4CCF)CC2)ccc1Nc1nccc(-c2c(-c3cccc(C(=O)Nc4c(F)cccc4F)c3)nc3ccccn23)n1 [Example 86, N-(2,6-difluorophenyl)-3-[3-(2-{[4-{4-[(1 S,4S)-5-(2-fluoroethyl)-2,5-diazabicyclo-[2.2.1]hept-2-yl]-1-piperidinyl}-2-(methyloxy)phenyl]amino}-4-pyrimidinyl)imidazo[1,2-a]pyridin-2-yl]benzamide] | > 7.00 | 6.00 to 6.60 | > 7.00
COc1cc(N2CCC(N3CCSCC3)CC2)ccc1Nc1nccc(-c2c(-c3cccc(C(=O)Nc4c(F)cccc4F)c3)nc3ccccn23)n1 [Example 85, N-(2,6-difluorophenyl)-3-{3-[2-({2-(methyloxy)-4-[4-(4-thiomomholinyl)-1-piperidinyl]phenyl}amino)-4-pyrimidinyl]imidazo[1,2-a]pyridin-2-yl}benzamide] | 6.30 to 7.00 | 6.00 to 6.60 | 6.30 to 7.00
COc1ccn2c(-c3ccnc(Nc4cccc(OCCN(C)C)c4)n3)c(-c3cccc(C(=O)Nc4c(F)cccc4F)c3)nc2c1 [Example 17, N-(2,6-difluorophenyl)-3-[3-{2-[(3-{[2-(dimethylamino)ethyl]oxy}phenyl)amino]-4-pyrimidinyl}-7-(methyloxy)imidazo[1,2-a]pyridin-2-yl]benzamide] | < 6.30 | 6.00 to 6.60 | 6.30 to 7.00
O=C(Nc1c(F)cccc1F)c1cccc(-c2nc3ccccn3c2-c2ccnc(Nc3ccc(N4CCC(N5CCCCC5)CC4)cc3)n2)c1 [Example 82, 3-[3-(2-{[4-(1,4′-bipiperidin-1′-yl)phenyl]amino}-4-pyrimidinyl)imidazo[1,2-a]pyridin-2-yl]-N-(2,6-difluorophenyl)benzamide] | 6.30 to 7.00 | > 6.60 | > 7.00
Cn1cc(-c2cccc(Nc3nccc(-c4c(-c5cccc(C(=O)Nc6c(F)cccc6F)c5)nc5ccccn45)n3)c2)cn1 [Example 11, N-(2,6-difluorophenyl)-3-[3-(2-{[3-(1-methyl-1H-pyrazol-4-yl)phenyl]amino}-4-pyrimidinyl)imidazo[1,2-a]pyridin-2-yl]benzamide] | 6.30 to 7.00 | 6.00 to 6.60 | 6.30 to 7.00
COc1cc(N2CCC(N3CCCCC3)CC2)ccc1Nc1nccc(-c2c(-c3cccc(C(=O)Nc4ccc(Cl)cc4F)c3)nc3ccccn23)n1 [Example 45, 3-[3-(2-{[4-(1,4′-bipiperidin-1′-yl)-2-(methyloxy)phenyl]amino}-4-pirimidinyl)imidazo[1,2-a]pyridin-2-yl]-N-(4-chloro-2-fluorophenyl)benzamide] | 6.30 to 7.00 | 6.00 to 6.60 | > 7.00

Other lines, results leading:

pIC50 [1] | pIC50 [2] | pIC50 [3] | SMILES
> 7.00 | 6.00 to 6.60 | > 7.00 | COc1cc(N2CCC(N3CCCCC3)CC2)c(F)cc1Nc1nccc(-c2c(-c3cccc(C(=O)Nc4c(F)cccc4F)c3)nc3ccccn23)n1 [Example 106, 3-[3-(2-{[4-(1,4′-bipiperidin-1′-yl)-5-fluoro-2-(methyloxy)phenyl]amino}-4-pyrimidinyl)imidazo[1,2-a]pyridin-2-yl]-N-(2,6-difluorophenyl)benzamide]
> 7.00 | 6.00 to 6.60 | > 7.00 | CCOc1cc(C2CCN(CCS(C)(=O)=O)CC2)ccc1Nc1nccc(-c2c(-c3cccc(C(=O)Nc4c(F)cccc4F)c3)nc3ccccn23)n1 [Example 183, N-(2,6-difluorophenyl)-3-(3-{2-[(2-(ethyloxy)-4-{1-[2-(methylsulfonyl)ethyl]-4-piperidinyl}phenyl)amino]-4-pyrimidinyl}imidazo[1,2-a]pyridin-2-yl)benzamide]
> 7.00 | 6.00 to 6.60 | > 7.00 | COc1cc(N2CCC(N3CCCCC3)CC2)c(Cl)cc1Nc1nccc(-c2c(-c3cccc(C(=O)Nc4c(F)cccc4F)c3)nc3ccccn23)n1 [Example 104, 3-[3-(2-{[4-(1,4′-bipiperidin-1′-yl)-5-chloro-2-(methyloxy)phenyl]amino]-4-pyrimidinyl)imidazo[1,2-a]pyridin-2-yl]-N-(2,6-difluorophenyl)benzamide]
> 7.00 | > 6.60 | > 7.00 | COc1cc(N2CCC(N3CCN(C)CC3)CC2)ccc1Nc1nccc(-c2c(-c3cccc(C(=O)Nc4c(F)cccc4F)c3)nc3ccccn23)n1 [Example 79, N-(2,6-difluorophenyl)-3-{3-[2-({2-(methyloxy)-4-[4-(4-methyl-1-piperazinyl)-1-piperidinyl]phenyl}amino)-4-pyrimidinyl]imidazo[1,2-a]pyridin-2-yl}benzamide]
> 7.00 | 6.00 to 6.60 | > 7.00 | COc1cc(CCN2CCN(C)CC2)ccc1Nc1nccc(-c2c(-c3ccc(OC(C)C)c(C(=O)Nc4c(F)cccc4F)c3)nc3ccccn23)n1 [Example 134, N-(2,6-difluorophenyl)-2-isopropoxy-5-{3-[2-({2-methoxy-4-[2-(4-methylpiperazin-1-yl)ethyl]phenyl}amino)pyrimidin-4-yl]imidazo[1,2-a]pyridin-2-yl}benzamide]
6.30 to 7.00 | 6.00 to 6.60 | > 7.00 | COc1cc(N2CCC(N3CCCCC3)CC2)ccc1Nc1nccc(-c2c(-c3cccc(C(=O)Nc4c(F)cccc4F)c3)nc3cc(C)ccn23)n1 [Example 18, 3-[3-(2-{[4-(1,4′-bipiperidin-1′-yl)-2-(methyloxy)phenyl]amino}-4-pyrimidinyl)-7-methylimidazo[1,2-a]pyridin-2-yl]-N-(2,6-difluorophenyl)benzamide]
> 7.00 | > 6.60 | > 7.00 | COc1cc(N2CCC(N3CCCCC3)CC2)c(Cl)cc1Nc1nccc(-c2c(-c3ccc(OC)c(C(=O)Nc4c(F)cccc4F)c3)nc3ccccn23)n1 [Example 105, 5-[3-(2-{[4-(1,4′-bipiperidin-1′-yl)-5-chloro-2-(methyloxy)phenyl]amino]-4-pyrimidinyl)imidazo[1,2-a]pyridin-2-yl]-N-(2,6-difluorophenyl)-2-(methyloxy)benzamide]
> 7.00 | 6.00 to 6.60 | > 7.00 | COc1cc(CCCN2CCN(C)CC2)ccc1Nc1nccc(-c2c(-c3ccc(OC)c(C(=O)Nc4c(F)cccc4F)c3)nc3ccccn23)n1 [Example 142, N-(2,6-difluorophenyl)-2-(methyloxy)-5-{3-[2-({2-(methyloxy)-4-[3-(4-methyl-1-piperazinyl)propyl]phenyl}amino)-4-pyrimidinyl]imidazo[1,2-a]pyridin-2-yl}benzamide]
6.30 to 7.00 | 6.00 to 6.60 | > 7.00 | CCc1cc(N2CCC(N3CCCCC3)CC2)ccc1Nc1nccc(-c2c(-c3cccc(C(=O)Nc4c(F)cccc4F)c3)nc3ccccn23)n1 [Example 40, 3-[3-(2-{[4-(1,4′-bipiperidin-1′-yl)-2-ethylphenyl]amino}-4-pyrimidinyl)imidazo[1,2-a]pyridin-2-yl]-N-(2,6-difluorophenyl)benzamide]
> 7.00 | 6.00 to 6.60 | > 7.00 | COc1cc(CCCN2CCCCC2)ccc1Nc1nccc(-c2c(-c3ccc(OC)c(C(=O)Nc4c(F)cccc4F)c3)nc3ccccn23)n1 [Example 140, N-(2,6-difluorophenyl)-2-(methyloxy)-5-{3-[2-({2-(methyloxy)-4-[3-(1-piperidinyl)propyl]phenyl}amino)-4-pyrimidinyl]imidazo[1,2-a]pyridin-2-yl}benzamide]
